From US11981646B1, “3-(4-methoxyphenyl)-5-{[5-methyl-2-(propan-2-yl)phenoxy]methyl}-1,2,4-oxadiazole as an antitumor and antimicrobial compound” (King Faisal University, priority 2023, dated 2024)

How the values were obtained:
[1] = tested on: human prostate cancer cells (PC3); assay: Assessment of cytotoxicity by SRB assay, PC3 cells; format: cell-based; conditions: 0.01 μM to 100 μM for 72 h
Protocol: (§1) Human prostate cancer cells (PC3) and human osteosarcoma cells (MG-63) were obtained from Nawah Scientific Inc. (Mokatam, Cairo, Egypt) and cultured in DMEM (Dulbecco's modified eagle's medium), Gibco, USA, supplemented with fetal bovine serum (FBS) at a concentration of 10% and 100 U/mL of penicillin and streptomycin (PS). The Cells were incubated at 37° C. in a humidified environment that contained 5% CO2. Cells were seeded in 96-well plates as aliquots of 100 μL cell suspension and incubated in a complete media for 24 h. Afterward, cells were treated with 3-(4-methoxyphenyl)-5-{[5-methyl-2-(propan-2-yl)phenoxy]methyl}-1,2,4-oxadiazole at diverse concentrations ranging from 0.01 μM to 100 μM for 72 h. Then, cells were fixed at 4° C. for one hour with 150 μL of 10% trichloroacetic acid (TCA). After washing the cells five times with distilled water, 70 μL of sulforhodamine (SRB) solution (0.4% w/v) was added and incubated for 10 min at room temperature in a dark place. […] Then, 150 μL of Tris pH 10.5 (10 mM) was added, and the absorbance was measured at 540 nm using a BMG LABTECH®-FLUOstar Omega microplate reader (Ortenberg, Germany). Half maximal inhibitory concentrations (IC50) values were calculated for each experiment using GraphPad Prism 6 software. […] The inhibition was calculated using the following equation: Inhibition %=100−Average Viability

[2] = tested on: human osteosarcoma cells (MG-63); assay: Assessment of cytotoxicity by SRB assay, MG-63 cells; format: cell-based; conditions: 0.01 μM to 100 μM for 72 h
Protocol: as §1

COc1ccc(-c2noc(COc3cc(C)ccc3C(C)C)n2)cc1 [3-(4-methoxyphenyl)-5-{[5-methyl-2-(propan-2-yl)phenoxy]methyl}-1,2,4-oxadiazole]
antiproliferative activity against prostate cancer cells (PC3) [1]: excellent antiproliferative activities | antiproliferative activity against osteosarcoma (MG-63) cells [2]: excellent antiproliferative activities
